Test [1] addresses T1, NAV2 (Homo sapiens, UniProt Q8IVL1).
T1 construct: endogenous in cells; host or cells: HEK 293T
Nature of the test: LC-MS/MS of pull-down precipitates, NAV2. Type of test: binding. To be noted: Competitor 0 μM. As for the experimental part: (§1) HEK293T cells were transiently transfected with tag-free hsClock and mBmal1. After 48 hours of transfection, cells were harvested and whole cell lysate was prepared with ice-cold lysis buffer (50 mM Tris-HCl pH 7.4, 2 mM EDTA, 1 mM MgCl2, 0.2% NP-40, 1 mM sodium orthovanadate, 1 mM sodium fluoride and protease inhibitor cocktail) followed by centrifugation at 7000×g at 4° C. for 10 minutes. Lysate was diluted with ice-cold 2× binding buffer (100 mM Tris-HCl pH 7.4, 300 mM NaCl, 0.2% NP-40, 2 mM sodium orthovanadate, 2 mM sodium fluoride, and protease inhibitor cocktail) 27. The lysate was divided into three fractions to be treated with either DMSO, or 20 μM of bitoinylated-CLK8 (bait) with or without 200 μM CLK8 (competitor). […]
(§2) The next step was to check for off-targets of CLK8. […] Since the amount of precipitated endogenous CLOCK was insufficient to be detected in LC-MS/MS, whole cell lysate of HEK 293T cells overexpressing CLOCK and BMAL1 were used for LC-MS/MS. We determined proteins that potentially bind to CLK8 by utilizing a minimum threshold for peptide spectrum matches and coverage equal to those of the main target, CLOCK. We also excluded proteins that have been detected in negative controls of the CRAPome database (32), assuming them as abundant sticky proteins. […] BMAL1 was detected in lower amounts when a competitor was present. […]

In test [2] the target is T2, CLOCK (Homo sapiens, UniProt O15516).
T2 sequence (O15516 1-846): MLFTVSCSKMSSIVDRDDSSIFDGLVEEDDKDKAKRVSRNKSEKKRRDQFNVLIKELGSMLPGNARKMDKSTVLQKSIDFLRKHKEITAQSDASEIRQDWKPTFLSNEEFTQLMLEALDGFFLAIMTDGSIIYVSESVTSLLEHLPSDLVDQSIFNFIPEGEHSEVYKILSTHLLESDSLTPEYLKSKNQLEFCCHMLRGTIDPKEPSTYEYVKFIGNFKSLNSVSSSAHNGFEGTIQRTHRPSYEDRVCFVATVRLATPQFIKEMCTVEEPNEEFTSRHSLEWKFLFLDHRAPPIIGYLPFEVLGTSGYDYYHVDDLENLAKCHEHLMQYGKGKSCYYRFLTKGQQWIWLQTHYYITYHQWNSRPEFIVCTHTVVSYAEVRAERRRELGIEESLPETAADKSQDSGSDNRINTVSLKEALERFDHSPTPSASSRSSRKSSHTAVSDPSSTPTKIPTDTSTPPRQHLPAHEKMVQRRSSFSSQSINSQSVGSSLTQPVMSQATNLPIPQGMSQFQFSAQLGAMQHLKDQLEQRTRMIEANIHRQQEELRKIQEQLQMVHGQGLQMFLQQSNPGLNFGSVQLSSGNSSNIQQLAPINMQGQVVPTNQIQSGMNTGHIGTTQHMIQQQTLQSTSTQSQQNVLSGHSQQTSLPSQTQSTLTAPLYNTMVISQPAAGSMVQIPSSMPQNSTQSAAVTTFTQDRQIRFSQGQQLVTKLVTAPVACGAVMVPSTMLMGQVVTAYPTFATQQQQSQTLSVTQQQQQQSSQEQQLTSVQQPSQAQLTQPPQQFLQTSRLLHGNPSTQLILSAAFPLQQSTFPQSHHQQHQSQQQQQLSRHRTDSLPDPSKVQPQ
Nature of the test: LC-MS/MS of pull-down precipitates, CLOCK. The test is classed as binding. More on the design: expressed in transfected cells; host or cells: HEK293T. As for the experimental part:
as §1, §2

Test [3] has as its target T2, CLOCK. Kind of test: Cytosol-nuclear fractionation of U2OS cells, CLOCK. Type of test: cell-based. Particulars: 20 μM, two days. How it is done: U2 OS cells treated with 20 μM CLK8 and 0.5% DMSO were used for fractionation analysis. The 4×10^5 was suspended in 500 ul cytosolic lysis buffer (10 mM HEPES pH 7,9, 10 mM KCl, 0.1 mM EDTA, 0.05% NP40 with protease inhibitors) and incubated on ice for 10 minutes. The lysate was centrifuged for 3 minutes at 3000 rpm at 4° C. The resulting supernatant was centrifuged one more time and supernatant collected as cytosolic fraction. On the other hand, the resulting pellet from lysate centrifugation was suspended in nuclear lysis buffer (20 mM HEPES pH 7.9, 0.4 M NaCl, 1 mM EDTA, 10% glycerol with protease inhibitors) and sonicated 2 times 10 seconds with 60% power. After centrifuge at 15 000 g for 5 minutes at 4° C., supernatant was collected as nuclear fraction. Collected fractions were used for Western Blot analysis. Fractionation efficiency was checked with Western Blot by using tubulin (Sigma T9026) as cytosolic marker and Histone-H3 (abcam ab1791) as nuclear marker.

T1 sequence (Q8IVL1 whole entry): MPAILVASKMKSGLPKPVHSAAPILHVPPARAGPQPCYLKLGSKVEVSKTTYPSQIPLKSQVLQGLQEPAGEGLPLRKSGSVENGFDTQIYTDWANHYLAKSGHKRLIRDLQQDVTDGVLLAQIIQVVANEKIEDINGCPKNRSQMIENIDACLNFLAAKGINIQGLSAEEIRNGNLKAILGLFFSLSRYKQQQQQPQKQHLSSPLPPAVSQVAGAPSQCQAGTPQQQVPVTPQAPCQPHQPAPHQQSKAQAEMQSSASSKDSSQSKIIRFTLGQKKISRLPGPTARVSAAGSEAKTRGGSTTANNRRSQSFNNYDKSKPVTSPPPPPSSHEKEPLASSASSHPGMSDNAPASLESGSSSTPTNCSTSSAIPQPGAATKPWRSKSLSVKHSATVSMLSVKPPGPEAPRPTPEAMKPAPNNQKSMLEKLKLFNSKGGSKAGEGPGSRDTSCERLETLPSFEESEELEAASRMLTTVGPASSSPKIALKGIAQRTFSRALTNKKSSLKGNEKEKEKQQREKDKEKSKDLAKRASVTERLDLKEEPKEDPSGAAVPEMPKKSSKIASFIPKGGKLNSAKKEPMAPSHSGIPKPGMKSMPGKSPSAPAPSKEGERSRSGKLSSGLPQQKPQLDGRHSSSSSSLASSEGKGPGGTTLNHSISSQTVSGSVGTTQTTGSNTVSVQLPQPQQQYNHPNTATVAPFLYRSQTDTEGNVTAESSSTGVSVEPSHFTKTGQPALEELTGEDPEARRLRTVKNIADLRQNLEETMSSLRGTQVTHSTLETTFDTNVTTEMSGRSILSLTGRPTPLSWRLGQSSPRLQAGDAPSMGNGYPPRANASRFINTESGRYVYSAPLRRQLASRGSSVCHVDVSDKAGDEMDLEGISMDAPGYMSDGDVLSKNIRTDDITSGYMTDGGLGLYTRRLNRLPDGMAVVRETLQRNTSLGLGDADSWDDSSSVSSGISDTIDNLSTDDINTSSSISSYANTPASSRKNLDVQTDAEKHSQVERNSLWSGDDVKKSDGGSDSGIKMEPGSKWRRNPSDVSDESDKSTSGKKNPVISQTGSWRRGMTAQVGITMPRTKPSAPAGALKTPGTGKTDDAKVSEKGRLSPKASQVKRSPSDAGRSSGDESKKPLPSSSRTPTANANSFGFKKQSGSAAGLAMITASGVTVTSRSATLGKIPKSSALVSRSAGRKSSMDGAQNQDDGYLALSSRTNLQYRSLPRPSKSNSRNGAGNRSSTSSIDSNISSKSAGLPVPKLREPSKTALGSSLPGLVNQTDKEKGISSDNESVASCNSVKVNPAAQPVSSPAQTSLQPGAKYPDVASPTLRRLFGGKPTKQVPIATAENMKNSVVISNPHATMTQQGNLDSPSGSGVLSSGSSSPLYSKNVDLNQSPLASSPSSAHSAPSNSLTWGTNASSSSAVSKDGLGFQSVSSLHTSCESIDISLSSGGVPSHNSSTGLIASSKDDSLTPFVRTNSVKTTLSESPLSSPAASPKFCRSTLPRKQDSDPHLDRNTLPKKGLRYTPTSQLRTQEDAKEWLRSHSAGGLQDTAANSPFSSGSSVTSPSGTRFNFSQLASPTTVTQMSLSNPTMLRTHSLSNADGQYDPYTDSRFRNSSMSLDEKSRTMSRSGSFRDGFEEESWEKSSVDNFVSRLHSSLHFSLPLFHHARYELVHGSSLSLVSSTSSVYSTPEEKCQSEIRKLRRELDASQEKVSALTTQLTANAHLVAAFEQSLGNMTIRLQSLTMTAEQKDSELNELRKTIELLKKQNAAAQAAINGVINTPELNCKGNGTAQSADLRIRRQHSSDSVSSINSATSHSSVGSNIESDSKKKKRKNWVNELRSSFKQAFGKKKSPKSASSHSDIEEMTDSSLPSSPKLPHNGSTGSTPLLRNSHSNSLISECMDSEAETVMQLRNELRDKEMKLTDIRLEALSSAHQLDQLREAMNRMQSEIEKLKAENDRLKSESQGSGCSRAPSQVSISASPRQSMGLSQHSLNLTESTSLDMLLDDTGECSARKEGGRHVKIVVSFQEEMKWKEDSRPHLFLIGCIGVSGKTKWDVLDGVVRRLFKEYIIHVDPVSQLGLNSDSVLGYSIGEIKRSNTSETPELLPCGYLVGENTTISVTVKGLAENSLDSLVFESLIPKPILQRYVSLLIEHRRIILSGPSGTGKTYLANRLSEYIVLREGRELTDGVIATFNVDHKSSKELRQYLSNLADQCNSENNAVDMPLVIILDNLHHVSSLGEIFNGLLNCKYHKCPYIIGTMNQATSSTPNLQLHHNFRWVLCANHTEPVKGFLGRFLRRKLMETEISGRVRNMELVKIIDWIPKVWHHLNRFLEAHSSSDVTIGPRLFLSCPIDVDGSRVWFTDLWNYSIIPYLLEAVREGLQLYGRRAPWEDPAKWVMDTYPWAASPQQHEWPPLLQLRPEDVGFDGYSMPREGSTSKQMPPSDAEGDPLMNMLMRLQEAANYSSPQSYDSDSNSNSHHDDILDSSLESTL

Regarding `CC1(C)CCc2c(cc(OCC(=O)Nc3ccccc3C(N)=O)c3c(-c4ccccc4)cc(=O)oc23)O1` [CLK8, 2-[2-({12,12-dimethyl-4-oxo-6-phenyl-3,11-dioxatricyclo [8.4.0.0,2,7]tetradeca-1,5,7,9-tetraen-8-yl}oxy)acetamido] benzamide], the “Peptide spectrum matches, NAV2” value in test [1] was 263. Further, the “Peptide spectrum matches, CLOCK” value in test [2] (Competitor 0 μM) is listed as 42; in test [2] (Competitor 200 μM), “not detected”. In addition, in test [3], the “level of CLOCK in the nucleus” value was “reduced”.
